Literature values, collected in patent publication US20160367580A1, “IMPROVED EXTENDED-ACTION TILMICOSIN AND USE THEREOF IN TREATMENT OF BOVINE RESPIRATORY DISEASE COMPLEX (BRD) AND IN DRY COW PERIOD” (UNIVERSIDAD NACIONAL AUTONOMA DE MEXICO, priority 2014, published 2016).

Legend:
[1] = in vivo
Staphylococcus aureus = settings: most of Staphylococcus aureus

SMILES: CC[C@H]1OC(=O)C[C@@H](O)[C@H](C)[C@@H](O[C@@H]2O[C@H](C)[C@@H](O)[C@H](N(C)C)[C@H]2O)[C@@H](CCN2C[C@H](C)C[C@H](C)C2)C[C@@H](C)C(=O)/C=C/C(C)=C/[C@@H]1CO[C@@H]1O[C@H](C)[C@@H](O)[C@@H](OC)[C@H]1OC [tilmicosin]
- plasma concentration not to be exceeded (cardiotoxicity with tachycardia) [1]: ≤ 4000 ng/mL
- CMI value (Staphylococcus aureus): < 1.0 µg/mL
